Measurements: patent publication US20240409530A1, “Disubstituted Pyrimidine Compounds for Ketohexokinase Inhibition” (Centennial Therapeutics, LLC, priority 2023, published 2024)
pIC50: −log10 of the molar value.

What was measured:
Assay in all cases: KHK inhibition assay, recombinant isozyme (coupled pyruvate kinase/LDH, NADH absorbance 340 nm)
Type in all cases: biochemical
Conditions in all cases: recombinant isozyme 6 nM, fructose 2 mM, ATP 0.1 mM
Rat recombinant KHK-A = Rat recombinant KHK-A (Rattus norvegicus (Rat), UniProt Q02974)
Chain of Rat recombinant KHK-A (Q02974 other isoform, or with tags, fused parts or gaps): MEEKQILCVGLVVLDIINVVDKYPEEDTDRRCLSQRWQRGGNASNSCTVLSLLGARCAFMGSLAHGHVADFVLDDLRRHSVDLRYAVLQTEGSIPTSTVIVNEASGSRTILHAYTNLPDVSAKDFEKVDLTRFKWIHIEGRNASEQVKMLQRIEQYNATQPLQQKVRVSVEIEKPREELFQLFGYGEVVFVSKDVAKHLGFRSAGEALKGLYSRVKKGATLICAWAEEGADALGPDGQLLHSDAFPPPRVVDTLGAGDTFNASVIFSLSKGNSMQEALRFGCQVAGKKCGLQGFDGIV
Method: (§1) Determination of Human and Rat recombinant KHK-A and KHK-C isozyme IC50 Values
(§2) An assay reagent cocktail was prepared by combining NADH, water, TEA, KCl, MgCl2, PEP, ATP, DTT, coupling enzymes (pyruvate kinase and lactate dehydrogenase, LDH) to final concentrations as shown in Table B.
(§3) To this was added the relevant KHK isozyme to a final concentration of 6 nM. Aliquots of each inhibitor compound were diluted via 5-fold serial dilutions to produce final concentrations ranging from 1000 nM to 0.064 nM. The inhibitor aliquots were added to the assay reagent cocktail containing KHK with fructose (at a concentration of 2 mM) in a 96-well plate. The absorbance at 340 nm was measured via spectrophotometry and inhibition was analyzed using non-linear regression.

Rat recombinant KHK-C = Rat recombinant KHK-C (Rattus norvegicus (Rat), UniProt Q02974)
Chain of Rat recombinant KHK-C (Q02974 whole entry): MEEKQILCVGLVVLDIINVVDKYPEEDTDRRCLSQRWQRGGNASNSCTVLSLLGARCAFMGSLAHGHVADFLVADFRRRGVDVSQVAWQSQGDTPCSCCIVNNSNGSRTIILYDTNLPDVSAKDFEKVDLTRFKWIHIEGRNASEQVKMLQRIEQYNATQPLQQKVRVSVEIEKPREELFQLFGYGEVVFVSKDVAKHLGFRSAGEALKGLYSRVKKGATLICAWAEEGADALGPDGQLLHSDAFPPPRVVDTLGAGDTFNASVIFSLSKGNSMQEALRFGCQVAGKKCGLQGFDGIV
Method: as §1, §2, §3

Human recombinant KHK-A = Human recombinant KHK-A (Homo sapiens (Human), UniProt P50053)
Chain of Human recombinant KHK-A (P50053 other isoform, or with tags, fused parts or gaps): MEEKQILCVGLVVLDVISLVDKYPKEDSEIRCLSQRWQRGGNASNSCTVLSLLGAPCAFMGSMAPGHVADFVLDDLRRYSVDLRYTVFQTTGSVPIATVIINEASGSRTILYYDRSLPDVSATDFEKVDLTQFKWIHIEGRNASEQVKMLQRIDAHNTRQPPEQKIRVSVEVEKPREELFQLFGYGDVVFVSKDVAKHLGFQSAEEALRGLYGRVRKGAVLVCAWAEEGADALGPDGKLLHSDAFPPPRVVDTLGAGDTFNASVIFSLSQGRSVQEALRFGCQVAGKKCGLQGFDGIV
Method: as §1, §2, §3

Human recombinant KHK-C = Human recombinant KHK-C (Homo sapiens (Human), UniProt P50053)
Chain of Human recombinant KHK-C (P50053 whole entry): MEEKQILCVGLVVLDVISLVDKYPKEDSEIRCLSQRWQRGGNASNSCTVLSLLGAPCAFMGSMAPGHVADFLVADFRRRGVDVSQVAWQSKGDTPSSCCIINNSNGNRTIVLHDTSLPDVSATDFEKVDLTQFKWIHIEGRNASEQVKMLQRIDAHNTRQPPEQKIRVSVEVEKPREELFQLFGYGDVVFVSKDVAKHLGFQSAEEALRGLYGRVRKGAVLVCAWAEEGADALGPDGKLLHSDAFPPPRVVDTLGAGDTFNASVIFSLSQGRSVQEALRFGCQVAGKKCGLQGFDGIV
Method: as §1, §2, §3

Row | SMILES | pIC50 (Rat recombinant KHK-A) | pIC50 (Rat recombinant KHK-C) | pIC50 (Human recombinant KHK-A) | pIC50 (Human recombinant KHK-C)
1 | O=C(Cn1cc(-c2nc(N3CC[C@@H]3C(F)F)nc(C(F)F)c2C2CC2)cn1)N1CCNCC1 [Compound A13, 2-(4-{2-[(R)-2-(difluoromethyl)-1-azetidinyl]-5-cyclopropyl-6-(difluoromethyl)-4-pyrimidinyl}-1-pyrazolyl)-1-(1-piperazinyl)-1-ethanone] |  |  |  | 7.39
2 | O=C(Cn1cc(-c2cc(C(F)F)nc(N3CC[C@@H]3C(F)F)n2)cn1)N1CCNCC1 [Compound A14, 2-(4-{2-[(R)-2-(difluoromethyl)-1-azetidinyl]-6-(difluoromethyl)-4-pyrimidinyl}-1-pyrazolyl)-1-(1-piperazinyl)-1-ethanone] |  |  |  | 6.50
3 | O=C(Cn1cc(-c2nc(N3CC[C@@H]3C(F)F)nc(C(F)(F)F)c2F)cn1)N1CCNCC1 [Compound A16, 2-(4-{2-[(R)-2-(difluoromethyl)-1-azetidinyl]-5-fluoro-6-(trifluoromethyl)-4-pyrimidinyl}-1-pyrazolyl)-1-(1-piperazinyl)-1-ethanone] |  |  |  | 7.32
4 | O=C(Cn1cc(-c2nc(N3CC[C@@H]3C(F)F)nc(C(F)(F)F)c2C2CC2)cn1)N1CCNCC1 [Compound A17, 2-(4-{2-[(R)-2-(difluoromethyl)-1-azetidinyl]-5-cyclopropyl-6-(trifluoromethyl)-4-pyrimidinyl}-1-pyrazolyl)-1-(1-piperazinyl)-1-ethanone] |  |  |  | 7.13
5 | O=C(Cn1cc(-c2cc(C(F)F)nc(N3CC[C@@H]3C(F)(F)F)n2)cn1)N1CCNCC1 [Compound A20, 2-(4-{2-[(R)-2-(trifluoromethyl)-1-azetidinyl]-6-(difluoromethyl)-4-pyrimidinyl}-1-pyrazolyl)-1-(1-piperazinyl)-1-ethanone] |  |  |  | 6.88
6 | C[C@H]1CCN1c1nc(-c2cnn(CC(=O)N3CCNCC3)c2)c(F)c(C(F)F)n1 [Compound A22, 2-(4-{2-[(S)-2-methyl-1-azetidinyl]-6-(difluoromethyl)-5-fluoro-4-pyrimidinyl}-1-pyrazolyl)-1-(1-piperazinyl)-1-ethanone] |  |  |  | 7.18
7 | COc1c(-c2cnn(CC(=O)N3CCNCC3)c2)nc(N2CC[C@@H]2C)nc1C(F)F [Compound A23, 2-(4-{2-[(S)-2-methyl-1-azetidinyl]-6-(difluoromethyl)-5-methoxy-4-pyrimidinyl}-1-pyrazolyl)-1-(1-piperazinyl)-1-ethanone] |  |  |  | 7.26
8 | C[C@H]1CCN1c1nc(-c2cnn(CC(=O)N3CCNCC3)c2)c(C2CC2)c(C(F)(F)F)n1 [Compound A30, 2-(4-{2-[(S)-2-methyl-1-azetidinyl]-5-cyclopropyl-6-(trifluoromethyl)-4-pyrimidinyl}-1-pyrazolyl)-1-(1-piperazinyl)-1-ethanone] |  |  |  | 7.38
9 | COc1c(-c2cnn(CC(=O)N3CCNCC3)c2)nc(N2CC[C@@H]2C(F)F)nc1C(F)(F)F [Compound A36, 2-(4-{2-[(R)-2-(difluoromethyl)-1-azetidinyl]-5-methoxy-6-(trifluoromethyl)-4-pyrimidinyl}-1-pyrazolyl)-1-(1-piperazinyl)-1-ethanone] |  |  |  | 7.44
10 | O=C(Cn1cc(-c2nc(N3CC[C@@H]3C(F)F)nc(C(F)F)c2F)cn1)N1CCNCC1 [Compound A39, 2-(4-{2-[(R)-2-(difluoromethyl)-1-azetidinyl]-6-(difluoromethyl)-5-fluoro-4-pyrimidinyl}-1-pyrazolyl)-1-(1-piperazinyl)-1-ethanone] |  |  |  | 6.96
11 | COc1c(-c2cnn(CC(=O)N3CCNCC3)c2)nc(N2CC[C@@H]2C(F)F)nc1C(F)F [Compound A44, 2-(4-{2-[(R)-2-(difluoromethyl)-1-azetidinyl]-6-(difluoromethyl)-5-methoxy-4-pyrimidinyl}-1-pyrazolyl)-1-(1-piperazinyl)-1-ethanone] |  |  |  | 7.21

The next molecules have a higher pIC50 (Human recombinant KHK-C) than those just listed; values first:

Row | pIC50 (Rat recombinant KHK-A) | pIC50 (Rat recombinant KHK-C) | pIC50 (Human recombinant KHK-A) | pIC50 (Human recombinant KHK-C) | SMILES
12 |  |  |  | 7.48 | CCc1c(-c2cnn(CC(=O)N3CCNCC3)c2)nc(N2CC[C@@H]2C(F)F)nc1C(F)F [Compound A40, 2-(4-{2-[(R)-2-(difluoromethyl)-1-azetidinyl]-6-(difluoromethyl)-5-ethyl-4-pyrimidinyl}-1-pyrazolyl)-1-(1-piperazinyl)-1-ethanone]
13 | 8.28 | 7.59 | 7.89 | 7.48 | CCc1c(-c2cnn(CC(=O)N3CCNCC3)c2)nc(N2CC[C@@H]2C)nc1C(F)F [Compound A26, 2-(4-{2-[(S)-2-methyl-1-azetidinyl]-6-(difluoromethyl)-5-ethyl-4-pyrimidinyl}-1-pyrazolyl)-1-(1-piperazinyl)-1-ethanone]
14 |  |  |  | 7.49 | COc1c(-c2cnn(CC(=O)N3CCNCC3)c2)nc(N2CC[C@@H]2C(F)(F)F)nc1C(F)F [Compound A15, 2-(4-{2-[(R)-2-(trifluoromethyl)-1-azetidinyl]-6-(difluoromethyl)-5-methoxy-4-pyrimidinyl}-1-pyrazolyl)-1-(1-piperazinyl)-1-ethanone]
15 | 7.59 | 7.36 | 7.16 | 7.51 | COc1c(-c2cnn(CC(=O)N3CCNCC3)c2)nc(N2CC[C@@H]2C)nc1C(F)(F)F [Compound A5, 2-(4-{2-[(S)-2-methyl-1-azetidinyl]-5-methoxy-6-(trifluoromethyl)-4-pyrimidinyl}-1-pyrazolyl)-1-(1-piperazinyl)-1-ethanone]
16 |  |  |  | 7.60 | C[C@H]1[C@H](O)CN1c1nc(-c2cnn(C3CN(C)C3)c2)c(C2CC2)c(C(F)(F)F)n1 [Compound A34, (2S,3R)-1-{5-cyclopropyl-4-[1-(1-methyl-3-azetidinyl)-4-pyrazolyl]-6-(trifluoromethyl)-2-pyrimidinyl}-2-methyl-3-azetidinol]
17 | 8.09 | 7.70 | 7.92 | 7.63 | C[C@H]1CCN1c1nc(-c2cnn(CC(=O)N3CCNCC3)c2)c(F)c(C(F)(F)F)n1 [Compound A32, 2-(4-{2-[(S)-2-methyl-1-azetidinyl]-5-fluoro-6-(trifluoromethyl)-4-pyrimidinyl}-1-pyrazolyl)-1-(1-piperazinyl)-1-ethanone]
18 | 8.39 | 7.70 | 7.82 | 7.74 | COc1c(-c2cnn(CC(=O)N3CCNCC3)c2)nc(N2CC[C@@H]2C(F)(F)F)nc1C(F)(F)F [Compound A28, 2-(4-{2-[(R)-2-(trifluoromethyl)-1-azetidinyl]-5-methoxy-6-(trifluoromethyl)-4-pyrimidinyl}-1-pyrazolyl)-1-(1-piperazinyl)-1-ethanone]
19 |  |  |  | 7.77 | CCc1c(-c2cnn(CC(=O)N3CCNCC3)c2)nc(N2CC[C@@H]2C(F)F)nc1C(F)(F)F [Compound A41, 2-(4-{2-[(R)-2-(difluoromethyl)-1-azetidinyl]-5-ethyl-6-(trifluoromethyl)-4-pyrimidinyl}-1-pyrazolyl)-1-(1-piperazinyl)-1-ethanone]
20 |  |  |  | 7.77 | O[C@@H]1CN(c2nc(-c3cnn(C4CNC4)c3)cc(C(F)(F)F)n2)[C@H]1C(F)(F)F (racemic) [Compound A31, (2R,3R)-1-{4-[1-(3-azetidinyl)-4-pyrazolyl]-6-(trifluoromethyl)-2-pyrimidinyl}-2-(trifluoromethyl)-3-azetidinol]
21 |  |  |  | 7.92 | O=C(Cn1cc(-c2nc(N3CC[C@@H]3C(F)F)nc(C(F)F)c2Cl)cn1)N1CCNCC1 [Compound A37, 2-(4-{2-[(R)-2-(difluoromethyl)-1-azetidinyl]-5-chloro-6-(difluoromethyl)-4-pyrimidinyl}-1-pyrazolyl)-1-(1-piperazinyl)-1-ethanone]
22 | 8.26 | 7.80 | 8.11 | 8.19 | COc1c(-c2cnn(C3CN(C)C3)c2)nc(N2C[C@@H](O)[C@@H]2C)nc1C(F)(F)F [Compound A8, (2S,3R)-1-{5-methoxy-4-[1-(1-methyl-3-azetidinyl)-4-pyrazolyl]-6-(trifluoromethyl)-2-pyrimidinyl}-2-methyl-3-azetidinol]
23 | 8.89 | 8.31 | 8.74 | 8.23 | C[C@H]1CCN1c1nc(-c2cnn(CC(=O)N3CCNCC3)c2)c(Cl)c(C(F)(F)F)n1 [Compound A4, 2-(4-{2-[(S)-2-methyl-1-azetidinyl]-5-chloro-6-(trifluoromethyl)-4-pyrimidinyl}-1-pyrazolyl)-1-(1-piperazinyl)-1-ethanone]
24 | 8.24 | 7.82 | 8.66 | 8.28 | CN1CC(n2cc(-c3cc(C(F)(F)F)nc(N4C[C@@H](O)[C@@H]4C(F)(F)F)n3)cn2)C1 (racemic) [Compound A25, (2R,3R)-1-{4-[1-(1-methyl-3-azetidinyl)-4-pyrazolyl]-6-(trifluoromethyl)-2-pyrimidinyl}-2-(trifluoromethyl)-3-azetidinol]
25 |  |  |  | 8.30 | O=C(Cn1cc(-c2nc(N3CC[C@@H]3C(F)(F)F)nc(C(F)(F)F)c2Cl)cn1)N1CCNCC1 [Compound A29, 2-(4-{2-[(R)-2-(trifluoromethyl)-1-azetidinyl]-5-chloro-6-(trifluoromethyl)-4-pyrimidinyl}-1-pyrazolyl)-1-(1-piperazinyl)-1-ethanone]
26 | 9.70 | 8.96 | 9.70 | 9.07 | C[C@H]1[C@H](O)CN1c1nc(-c2cnn(C3CN(C)C3)c2)c(Cl)c(C(F)(F)F)n1 [Compound A10, (2S,3R)-1-{5-chloro-4-[1-(1-methyl-3-azetidinyl)-4-pyrazolyl]-6-(trifluoromethyl)-2-pyrimidinyl}-2-methyl-3-azetidinol]
